Measurements: US6613875B1, “Cyclic peptide tube” (The Scripps Research Institute, priority 1993, dated 2003)
Square brackets hold non-standard residues; d marks the D form.

Test: Proton transport (collapse of pH gradient) in vesicles with entrapped 5(6)-carboxyfluorescein
Assay type: biochemical
Settings: vesicles pH 6.5 inside, pH 5.5 outside
Text: The proton efflux is expressed in terms of the fractional change in the fluorescence intensity of vesicle entrapped 5(6)-carboxyfluorescein as a function of time (sampling time was at 0.3 seconds interval). Equal molar amounts of channel forming compounds were used in each experiment to allow direct comparisons of channel-mediated proton transport activity. The amount of added channel forming compounds in each experiment ranged from of 2 to 20 nmoles corresponding to approximately 150 channels per liposome for the lowest concentrations to 1100 channels per liposome for the highest amount of added compounds.
Formation of transmembrane channels was also inferred from its highly efficient proton transport activity. Vesicles were prepared having pH 6.5 inside and pH 5.5 in the outside bulk solution. The collapse of the imposed pH gradient in these vesicles, upon formation of the putative transmembrane channel structure, was studied by monitoring the fluorescence intensity of an entrapped pH-sensitive dye. (V.E. Carmichael et al, in J.Am. Chem. Soc. (1989), vol. 111, pages 767-769). […] Unilamellar vesicles were prepared by the reverse-phase evaporation using DPPC, OPPC, cholestrol in the ratio of 1:1:2 in a solution containing 5(6)-carboxyfluorescein (20 mM in phosphate/saline buffer: 137 mM NaCl, 2.6 mM KCl, 6.4 mM Na2HPO4, 1.4 mM KH2PO4, pH 6.5) according to the method of F. Szoka et al. in Proc. Natl. Acad. Sci. USA (1978), vol. 75, pages 4194-4198. […] Vesicles formed in this way are approximately 150 nanometer in diameter as determined by electron microscopy. […] To the cuvett, through an injector port, […] of the channel forming compounds in DMSO was added with continuous fluorescence monitoring at 520 nm (excitation at 470 nm). The observed data were then normalized for comparison into the fractional change in fluorescence ((I0−It)/(I0−I∞)) (V. E. Carmichael et al, in J.Am. Chem. Soc. (1989), vol. 111, pages 767-769)). […]

cyclo[-(Trp-D-Leu)3-Gln-D-Leu-] (cyclo(W[dL]W[dL]W[dL]Q[dL]); SMILES CC(C)C[C@H]1NC(=O)[C@H](CCC(N)=O)NC(=O)[C@@H](CC(C)C)NC(=O)[C@H](Cc2c[nH]c3ccccc23)NC(=O)[C@@H](CC(C)C)NC(=O)[C@H](Cc2c[nH]c3ccccc23)NC(=O)[C@@H](CC(C)C)NC(=O)[C@H](Cc2c[nH]c3ccccc23)NC1=O) [eight residue ion channel forming cyclic peptide, approximately 7.5 Å pore]
collapse of the imposed pH gradient upon addition of peptide: rapid collapse of the pH gradient
